Data on five compounds can be found in US20250228835A1, “PYRIDINYLOXYPYRIDINES AND RELATED COMPOUNDS AND THEIR USE IN TREATING MEDICAL CONDITIONS” (Rectify Pharmaceuticals, Inc., priority 2024, published 2025).

Test [1] deals with T1, ABCC6 WT (Homo sapiens, UniProt O95255).
T1 construct: expressed in transfected cells; host or cells: HEK-293 (transient, Lipofectamine 2000)
The test can be described thus: ABCC6 WT assay: HiBit protein expression. To be noted: HEK-293 cells transiently expressing HiBit-tagged ABCC6 WT; 24 h treatment; top concentration 20 μM; read-out: ABCC6 WT EC50, Emax. In kind it is cell-based. The procedure, abridged: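 HEK-293 cells transiently transfected with HiBit-tagged human ABCC6 WT cDNA, seeded 24 h post-transfection, treated 24 h at 37° C with ten 2-fold doses (top 20 μM final, 0.15% DMSO). HiBit lytic luminescence reports protein expression; Emax and EC50 derived.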
(HiBiT is a short tag that completes a luciferase, so light tracks the accessible tagged protein.)

The target of test [2] is T2, ABCA4 P1380L (Homo sapiens, UniProt P78363, P1380L).
T2 construct: expressed in transfected cells
Nature of the test: A4 correction dose-response assay: ABCA4 P1380L HiBit protein expression. The test is classed as cell-based. To be noted: HEK-293 cells stably expressing HiBit-tagged ABCA4 P1380L; 24 h treatment; top concentration 30 μM; read-out: ABCA4 P1380L EC50, Emax. In a few lines:
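Cells transfected with HiBit-tagged human ABCA4 P1380L cDNA were treated for 24 h at 37°C with an eleven-point dilution series (top final 30 μM, 0.3% DMSO).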

T1 sequence (O95255 whole entry): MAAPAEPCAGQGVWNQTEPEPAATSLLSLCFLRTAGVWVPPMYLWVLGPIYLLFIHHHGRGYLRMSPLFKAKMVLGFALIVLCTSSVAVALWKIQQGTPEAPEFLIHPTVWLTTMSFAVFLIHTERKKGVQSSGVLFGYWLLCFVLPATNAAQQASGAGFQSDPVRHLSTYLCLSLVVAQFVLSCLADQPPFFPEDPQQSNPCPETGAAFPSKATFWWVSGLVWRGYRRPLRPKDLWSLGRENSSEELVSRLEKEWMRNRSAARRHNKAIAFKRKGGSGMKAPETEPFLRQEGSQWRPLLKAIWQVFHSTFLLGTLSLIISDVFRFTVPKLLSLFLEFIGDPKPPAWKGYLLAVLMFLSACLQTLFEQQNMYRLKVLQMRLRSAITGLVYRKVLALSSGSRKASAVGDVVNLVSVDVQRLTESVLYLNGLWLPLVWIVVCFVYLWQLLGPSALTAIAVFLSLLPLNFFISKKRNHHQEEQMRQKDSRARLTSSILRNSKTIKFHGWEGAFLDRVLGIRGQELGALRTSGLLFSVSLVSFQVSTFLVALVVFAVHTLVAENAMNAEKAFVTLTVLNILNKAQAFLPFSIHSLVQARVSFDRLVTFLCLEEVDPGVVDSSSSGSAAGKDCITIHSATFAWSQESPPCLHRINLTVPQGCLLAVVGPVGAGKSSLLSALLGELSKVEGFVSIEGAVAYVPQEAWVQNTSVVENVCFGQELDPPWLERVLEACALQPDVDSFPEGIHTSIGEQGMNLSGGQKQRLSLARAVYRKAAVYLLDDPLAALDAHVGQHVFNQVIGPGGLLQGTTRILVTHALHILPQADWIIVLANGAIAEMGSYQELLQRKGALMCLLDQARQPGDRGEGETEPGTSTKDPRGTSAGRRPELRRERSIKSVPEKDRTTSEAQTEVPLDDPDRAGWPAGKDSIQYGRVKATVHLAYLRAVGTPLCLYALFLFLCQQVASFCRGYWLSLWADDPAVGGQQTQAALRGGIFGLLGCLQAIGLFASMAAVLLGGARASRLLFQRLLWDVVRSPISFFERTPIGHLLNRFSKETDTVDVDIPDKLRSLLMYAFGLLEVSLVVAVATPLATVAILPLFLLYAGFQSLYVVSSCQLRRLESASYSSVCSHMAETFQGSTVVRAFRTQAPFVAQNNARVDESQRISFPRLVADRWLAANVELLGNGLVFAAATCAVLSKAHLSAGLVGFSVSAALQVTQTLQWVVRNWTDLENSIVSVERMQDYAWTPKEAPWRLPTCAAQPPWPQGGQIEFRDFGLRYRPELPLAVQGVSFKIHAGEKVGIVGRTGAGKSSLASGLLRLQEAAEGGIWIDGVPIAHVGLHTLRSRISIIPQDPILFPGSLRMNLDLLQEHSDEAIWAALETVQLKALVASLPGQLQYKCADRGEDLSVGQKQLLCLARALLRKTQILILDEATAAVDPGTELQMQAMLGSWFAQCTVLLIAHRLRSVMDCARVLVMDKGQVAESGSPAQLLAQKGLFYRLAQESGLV
T2 sequence (P78363 whole entry P1380L): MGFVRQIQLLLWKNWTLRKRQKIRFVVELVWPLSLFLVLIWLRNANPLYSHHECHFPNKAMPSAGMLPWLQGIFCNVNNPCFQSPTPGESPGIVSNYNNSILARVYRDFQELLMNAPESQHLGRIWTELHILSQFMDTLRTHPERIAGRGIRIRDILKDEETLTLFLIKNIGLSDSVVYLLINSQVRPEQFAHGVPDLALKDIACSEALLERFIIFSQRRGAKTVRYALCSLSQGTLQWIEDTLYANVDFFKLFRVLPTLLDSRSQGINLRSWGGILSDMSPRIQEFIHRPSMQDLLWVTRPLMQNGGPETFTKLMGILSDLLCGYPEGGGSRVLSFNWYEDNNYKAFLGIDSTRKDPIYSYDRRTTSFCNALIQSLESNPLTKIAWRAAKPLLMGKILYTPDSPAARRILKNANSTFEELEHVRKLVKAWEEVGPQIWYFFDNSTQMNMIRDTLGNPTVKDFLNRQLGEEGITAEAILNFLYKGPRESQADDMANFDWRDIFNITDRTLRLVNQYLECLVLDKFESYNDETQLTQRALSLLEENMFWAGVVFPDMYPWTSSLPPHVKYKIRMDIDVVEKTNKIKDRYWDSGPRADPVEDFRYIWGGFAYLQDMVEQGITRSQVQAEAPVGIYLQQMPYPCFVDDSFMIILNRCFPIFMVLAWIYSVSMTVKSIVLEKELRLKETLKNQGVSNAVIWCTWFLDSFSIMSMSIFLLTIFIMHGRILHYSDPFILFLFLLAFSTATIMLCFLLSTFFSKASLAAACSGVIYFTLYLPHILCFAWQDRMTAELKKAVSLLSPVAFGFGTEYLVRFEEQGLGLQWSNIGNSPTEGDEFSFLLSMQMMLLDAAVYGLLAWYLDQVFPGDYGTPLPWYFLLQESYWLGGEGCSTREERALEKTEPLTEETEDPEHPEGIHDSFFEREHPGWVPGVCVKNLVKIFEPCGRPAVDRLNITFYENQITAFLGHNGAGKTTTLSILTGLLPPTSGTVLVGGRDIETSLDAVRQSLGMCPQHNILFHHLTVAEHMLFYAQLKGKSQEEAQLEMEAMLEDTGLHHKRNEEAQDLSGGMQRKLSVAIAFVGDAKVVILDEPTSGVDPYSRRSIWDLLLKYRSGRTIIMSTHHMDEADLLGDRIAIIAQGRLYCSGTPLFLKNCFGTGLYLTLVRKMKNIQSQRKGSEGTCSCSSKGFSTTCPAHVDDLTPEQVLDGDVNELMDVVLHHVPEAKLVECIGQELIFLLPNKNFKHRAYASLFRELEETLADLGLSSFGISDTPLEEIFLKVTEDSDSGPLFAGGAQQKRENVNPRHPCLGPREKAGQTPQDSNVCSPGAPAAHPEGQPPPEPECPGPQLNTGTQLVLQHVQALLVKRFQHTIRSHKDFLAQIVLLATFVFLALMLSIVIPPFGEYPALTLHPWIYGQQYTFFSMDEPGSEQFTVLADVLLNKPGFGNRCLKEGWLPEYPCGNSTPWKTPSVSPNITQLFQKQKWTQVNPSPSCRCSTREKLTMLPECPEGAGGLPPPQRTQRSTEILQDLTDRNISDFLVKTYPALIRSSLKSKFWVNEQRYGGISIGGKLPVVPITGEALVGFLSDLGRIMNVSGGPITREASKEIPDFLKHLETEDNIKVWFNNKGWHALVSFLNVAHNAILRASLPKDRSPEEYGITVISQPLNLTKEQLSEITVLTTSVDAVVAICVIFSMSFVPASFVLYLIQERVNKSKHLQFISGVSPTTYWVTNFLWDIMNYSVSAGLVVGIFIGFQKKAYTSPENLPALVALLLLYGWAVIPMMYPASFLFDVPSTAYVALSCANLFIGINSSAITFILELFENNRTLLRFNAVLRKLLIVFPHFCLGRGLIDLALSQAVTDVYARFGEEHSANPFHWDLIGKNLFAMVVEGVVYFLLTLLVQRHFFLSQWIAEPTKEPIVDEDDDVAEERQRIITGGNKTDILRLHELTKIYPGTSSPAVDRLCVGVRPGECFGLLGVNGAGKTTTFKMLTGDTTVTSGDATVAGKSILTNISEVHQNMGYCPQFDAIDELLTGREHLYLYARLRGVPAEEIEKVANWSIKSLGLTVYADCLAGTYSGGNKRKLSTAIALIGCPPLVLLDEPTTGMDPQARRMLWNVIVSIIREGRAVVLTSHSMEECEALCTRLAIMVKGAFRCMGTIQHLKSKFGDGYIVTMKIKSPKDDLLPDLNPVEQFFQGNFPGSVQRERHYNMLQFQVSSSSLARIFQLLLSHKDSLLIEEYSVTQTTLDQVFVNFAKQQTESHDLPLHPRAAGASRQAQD

Broadly, the EC50 is the midpoint of the concentration-response curve. With `CNS(=O)(=O)c1ncc(-c2cncc(Cl)c2)nc1Oc1c(C)cc(C)c(Cl)c1C` [Compound I-89], the concentration for a half-maximal effect (EC50) in test [1] was < 25 µM; in test [2], > 25 µM.
The like results for `Cc1cc(C)c(Oc2nc(-c3cncc(Cl)c3)cnc2S(N)(=O)=O)c(C)c1Cl` [Compound I-90] were, in that order, < 1 µM and 1 to 10 µM.
The like results for `CNS(=O)(=O)c1ccc(N2CCN(C)C(=O)C2)nc1Oc1c(C)cc(C)cc1C` [Compound I-92] were, in that order, 1 to 10 µM and > 25 µM.
On to `Cc1cc(C)c(Oc2nc(-c3cncc(Cl)c3)ncc2S(N)(=O)=O)c(C)c1Cl` [Compound I-93], for which the half-maximal effective concentration (EC50) in test [1] was < 25 µM; in test [2], 1 to 10 µM.
The like results for `Cc1cc(C)c(Oc2nc(-c3cncc(Cl)c3)ccc2S(=O)(=O)Nc2cnn(C)c2)c(C)c1` [Compound I-94] were, in that order, 1 to 10 µM and 1 to 10 µM.
